Several values for one entry are separate records, joined by “and”; a condition that tells them apart may be missing. Identical values can stand only once. In the oligonucleotide strings, read from the 5' end, every base follows the letter of its sugar. An asterisk marks phosphorothioate; unmarked linkages are phosphodiester. Other units and linkages are bracketed, terminal groups are in braces. A string of capitals states the bases alone. d = 2'-deoxy (DNA)
Assays:
pancreatic cancer [1] = assay: Clinical study of overall survival, pancreatic cancer patients treated with irinotecan, by TGF-β2 expression (Example 5, two cohorts); assay type: in vivo, human; conditions: for Improvement in overall survival (OS) with reduced TGF-β2 expression in patients treated with the agent: pancreatic cancer patients selected by treatment; for Median Months Overall (95% CI): irinotecan-treated patients; for Synergy in combination with reduced TGF-β2 expression: overall survival, pancreatic cancer patients
Excerpt: The study of FIG. 5 used Quartiles of TGFB2 from mRNA expression z-scores relative to all samples (log RNA Seq V2 RSEM).

pancreatic cancer [2] = assay: Clinical study of overall survival, pancreatic cancer patients treated with irinotecan, by TGF-β2 expression quartiles (Example 6); assay type: in vivo, human; conditions: TGFB2 quartile (D) 0.61-2.64, high TGF-β2 expression
Experimental: Kaplan-Meier Plotter was used to calculate patient survival to determine the connection between improved overall survival in pancreatic cancer and reduced TGF-β2 expression when patients were also treated with irinotecan. The study of FIG. 6 used Quartiles of TGFB2 from mRNA expression z-scores relative to all samples (log RNA Seq V2 RSEM).

Compound	Improvement in overall survival (OS) with reduced TGF-β2 expression in patients treated with the agent (pancreatic cancer [1])	Synergy in combination with reduced TGF-β2 expression (pancreatic cancer [1])	other results
O=C1[O][Pt]2([NH][C@@H]3CCCC[C@H]3[NH]2)[O]C1=O [oxaliplatin]	not observed		
Nc1ccn([C@@H]2O[C@H](CO)[C@@H](O)C2(F)F)c(=O)n1 [gemcitabine]	not observed		
CCc1c2c(nc3ccc(OC(=O)N4CCC(N5CCCCC5)CC4)cc13)-c1cc3c(c(=O)n1C2)COC(=O)[C@]3(O)CC [irinotecan]	showed improvement in overall survival		Median Months Overall (95% CI) (pancreatic cancer [1]; TGFB2 cohort (A) −1.75-0.17, low TGF-β2 expression): >>34 months; Median Months Overall (95% CI) (pancreatic cancer [1]; TGFB2 cohort (B) 0.33-2.64, high TGF-β2 expression): 23 months and 23.08 (8.22-NA) months; Median Months Overall (95% CI) (pancreatic cancer [2]): 8 months and 8.22 (6.02-NA) months
Nc1nc2c(c(=O)[nH]1)N(C=O)C(CNc1ccc(C(=O)N[C@@H](CCC(=O)O)C(=O)O)cc1)CN2 (some centres unmarked) [leucovorin]	not observed	none of oxaliplatin, leucovorin, and fluorouracil showed significant synergy	
O=c1[nH]cc(F)c(=O)[nH]1 [fluorouracil]	not observed	none of oxaliplatin, leucovorin, and fluorouracil showed significant synergy	
Trabedersen: synthetic 18-mer phosphorothioate oligodeoxynucleotide complementary to human TGF-β2 mRNA, CGGCATGTCT ATTTTGTA (antisense dC*dG*dG*dC*dA*dT*dG*dT*dC*dT*dA*dT*dT*dT*dT*dG*dT*dA)			pH of solution: 6-8

Source: patent US20250382619A1, “CANCER THERAPY WITH TGF-BETA-2 AND IRINOTECAN AGENTS” (GMP BIOTECHNOLOGY LIMITED, priority 2023, published 2025)
